The text below walks through data of patent publication US20250122193A1, “NOVEL PYRIDOCARBAZOLIUM COMPOUNDS AND MEDICAL USES THEREOF” (MyCural Therapeutics, priority 2021, published 2025).

Bounds are passed on as bounds.

Data set [1] deals with wt and p53-deficient HCT116 cells. Description: WST1 assay in wt and p53-deficient HCT116 cells. In kind it is cell-based. The conditions noted are these: titration. (In general: Formazan colour is commonly taken as a measure of viable cells.)
Another data set relates to p53 expression. Description: p53 expression by western blot. In kind it is cell-based. Conditions: 5 μM, HCT116 and Kelly cells. The protocol:
A) Measurement of MYC mRNA expression by RTqPCR after treatment with MYCMI-7 and different topoisomerase inhibitors at indicated concentrations. […] D) Western blot analysis of p53 and p21 expression after exposure to 5 μM MYCMI-7, ellipticine or camptothecin (CPT) in HCT116 cells. E) Western blot analysis of phospho-ATM, total ATM and p53 expression after exposure to indicated concentrations of MYCMI-7 and ellipticine in A375 cells after 3 hrs treatment.
For western blot equal amounts of proteins ([…]) were separated on a 4-12% SDS-PAGE gel. Proteins were transferred to Immobilion-P membrane (Millipore) and detected by immunostaining and chemoluminescence (Immobilion western HRP substrate; Millipore). For immunoprecipitations 500-1000 μg of protein was used. […] Briefly, cells were crosslinked with 1% formaldehyde on ice for 6 minutes. Nuclear chromatin was sonicated on ice to fragments from 0.3 kb to 0.5 kb. Nuclear chromatin equivalent to 2.5×10^7 cells was immunoprecipitated with 2 μg antibody.
In general terms: In western blotting, separated proteins are transferred to a membrane and probed.

Data set [2] in a line: oxidative metabolism in human liver microsomes.
Data set [3] concerns MCF-7 breast carcinoma cells. Description: RNA-seq gene set enrichment analysis. Conditions: 5 μM, 24 hrs.
Another data set addresses Recombinant human Top2a (Homo sapiens, UniProt P11388). Description: Top2 decatenation assay. In kind it is biochemical. Conditions: in vitro decatenation of kDNA. The procedure:
Top2 decatenation assay: Recombinant human Top2a (15 nM) was incubated with 80 ng catenated kinetoplast DNA (Topogen, TG2013) in Top2 reaction buffer (50 mM Tris pH8, 150 mM NaCl, 10 mM MgCl2, 0.5 mM DTT, 30 μg/ml BSA) with 1-100 μM of either doxorubicin, MYCMI-7, ellipticine or camptothecin for 10 minutes at 37° C. Drug dilutions were made in a DMSO/H2O solution so that a final concentration of 1% DMSO was consistent across all samples. The reaction was stopped with the addition of SDS to a final concentration of 1% and the Top2a was digested by Proteinase K at 55° C. for 10 minutes. DNA was purified by phenol:chloroform extraction before running on a 1% agarose gel either containing or post-stained with 0.5 μg/ml ethidium bromide. The decatenated products were quantified, normalised to the Top2α+DMSO control and plotted using GraphPad Prism.
First, we utilized an in vitro TOP2A decatenation assay. TOP2 enzymes decatenate kinetoplast DNA (kDNA) converting a network of interlocking DNA rings into individual rings that can be separated by agarose gel electrophoresis.

The next data set in a line: pharmacokinetics in mice. Conditions: 6.25 mg/kg i.p.
The target of another data set is MYC:MAX interaction (Homo sapiens, UniProt P01106). Description: split Gaussia luciferase (GLuc) assay, MYC:MAX. In kind it is cell-based. Also noted: replacing the existing Zip-gene (GCN4) with full length MYC, MYCN or MAX cDNA; expressed in transfected cells; host or cells: HeLa. Conditions: 5 μM. The protocol:
A) Molecular structure of MYCMI-7. B-E) split Gaussia luciferase (GLuc) assay. MYC or MYCN and MAX Gluc constructs were co-transfected into HeLa cells together with a firefly luciferase vector. 24 hours post transfection cells were treated with compounds, and after another 17-24 hours cells were harvested and both GLuc and firefly luciferase activities were measured. The mean of three different experiments is shown. Treatment with: B) 5 μM of MYCMI-7, 64 μM 10058-F4 or 5 μM JQ1, respectively, C) 6.5 μM MYCMI-7 on cells expressing MYC:MAX GLuc vs. GCN4:GCN4 GLuc, D) 5 μM MYCMI-7 and 5 μM ellipticine. E) 5 μM MYCMI-7 for various time points. F) in situ proximity ligation assay (isPLA). […] MYC:GAL4 was used as negative control in the isPLA assay. G) Quantification of isPLA dots. (H) Co-immunoprecipitation (co-IP) of endogenous MYC and MAX proteins from MCF7 cells after treatment with 5 μM MYCMI-7 at various times. IP=immunoprecipitation; W=western blot. I) Chromatin immunoprecipitation (ChIP) of MYC at the ODC1 target gene promoter after treatment of cells with 5 μM MYCMI-7 for 6 hours. J) MYC target gene ODC1 expression after treatment with 5 μM MYCMI-7, quantified by qPCR. K) ChIP of MYC at the ODC promoter in MCF7 cells after 5 μM MYCMI-7 treatment for indicated time points. L) Recombinant MYC bHLHZip protein domain immobilized onto a CM5 chip was subjected to various concentrations of MYCMI-7 and the complex of MYCbHLHZip-MYCMI-7 was measured as response units by SPR. The sensogram was produced by subtracting the blank response.
0.2-0.4 μg of each GLuc-construct together with 0.05 μg pCMV-LUC (firefly luciferase) were used per transfection in 12 well plates. 24 hours later cells were treated with compound or DMSO. After another 17 hours, the cells were harvested and lyzed in passive lysis buffer (Promega) supplemented with complete protease inhibitor (Roche). After 60 min incubation at room temperature 20 μM D-luciferin was added (substrate of Firefly luciferase) and luminescence was measured in a Lumat LB9501 (Berthold) or OmegaFluostar (BMG Labtech) luminometer. Directly after, Gaussia luciferase substrate Coelenterazine (Promega) was added to a final concentration of 20 μM in a mixture with “Stop n' Glow” (Promega) and the luciferase activity was measured. The ratio between Gaussia and Firefly luciferase values were calculated and normalized to DMSO-treated control cells.

Sequence of MYC:MAX interaction (P01106 16-454): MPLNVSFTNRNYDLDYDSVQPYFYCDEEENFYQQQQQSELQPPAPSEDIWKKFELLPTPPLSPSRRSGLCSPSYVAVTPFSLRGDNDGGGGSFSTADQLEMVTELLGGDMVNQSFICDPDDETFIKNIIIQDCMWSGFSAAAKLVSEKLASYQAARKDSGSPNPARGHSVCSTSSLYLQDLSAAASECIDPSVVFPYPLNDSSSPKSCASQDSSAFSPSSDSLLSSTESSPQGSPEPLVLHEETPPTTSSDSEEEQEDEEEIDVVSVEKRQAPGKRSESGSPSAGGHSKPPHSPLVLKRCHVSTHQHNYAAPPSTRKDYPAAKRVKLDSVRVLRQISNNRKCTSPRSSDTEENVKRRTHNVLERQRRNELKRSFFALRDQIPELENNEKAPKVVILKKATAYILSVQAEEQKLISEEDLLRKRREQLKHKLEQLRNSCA
Sequence of Recombinant human Top2a (P11388 whole entry): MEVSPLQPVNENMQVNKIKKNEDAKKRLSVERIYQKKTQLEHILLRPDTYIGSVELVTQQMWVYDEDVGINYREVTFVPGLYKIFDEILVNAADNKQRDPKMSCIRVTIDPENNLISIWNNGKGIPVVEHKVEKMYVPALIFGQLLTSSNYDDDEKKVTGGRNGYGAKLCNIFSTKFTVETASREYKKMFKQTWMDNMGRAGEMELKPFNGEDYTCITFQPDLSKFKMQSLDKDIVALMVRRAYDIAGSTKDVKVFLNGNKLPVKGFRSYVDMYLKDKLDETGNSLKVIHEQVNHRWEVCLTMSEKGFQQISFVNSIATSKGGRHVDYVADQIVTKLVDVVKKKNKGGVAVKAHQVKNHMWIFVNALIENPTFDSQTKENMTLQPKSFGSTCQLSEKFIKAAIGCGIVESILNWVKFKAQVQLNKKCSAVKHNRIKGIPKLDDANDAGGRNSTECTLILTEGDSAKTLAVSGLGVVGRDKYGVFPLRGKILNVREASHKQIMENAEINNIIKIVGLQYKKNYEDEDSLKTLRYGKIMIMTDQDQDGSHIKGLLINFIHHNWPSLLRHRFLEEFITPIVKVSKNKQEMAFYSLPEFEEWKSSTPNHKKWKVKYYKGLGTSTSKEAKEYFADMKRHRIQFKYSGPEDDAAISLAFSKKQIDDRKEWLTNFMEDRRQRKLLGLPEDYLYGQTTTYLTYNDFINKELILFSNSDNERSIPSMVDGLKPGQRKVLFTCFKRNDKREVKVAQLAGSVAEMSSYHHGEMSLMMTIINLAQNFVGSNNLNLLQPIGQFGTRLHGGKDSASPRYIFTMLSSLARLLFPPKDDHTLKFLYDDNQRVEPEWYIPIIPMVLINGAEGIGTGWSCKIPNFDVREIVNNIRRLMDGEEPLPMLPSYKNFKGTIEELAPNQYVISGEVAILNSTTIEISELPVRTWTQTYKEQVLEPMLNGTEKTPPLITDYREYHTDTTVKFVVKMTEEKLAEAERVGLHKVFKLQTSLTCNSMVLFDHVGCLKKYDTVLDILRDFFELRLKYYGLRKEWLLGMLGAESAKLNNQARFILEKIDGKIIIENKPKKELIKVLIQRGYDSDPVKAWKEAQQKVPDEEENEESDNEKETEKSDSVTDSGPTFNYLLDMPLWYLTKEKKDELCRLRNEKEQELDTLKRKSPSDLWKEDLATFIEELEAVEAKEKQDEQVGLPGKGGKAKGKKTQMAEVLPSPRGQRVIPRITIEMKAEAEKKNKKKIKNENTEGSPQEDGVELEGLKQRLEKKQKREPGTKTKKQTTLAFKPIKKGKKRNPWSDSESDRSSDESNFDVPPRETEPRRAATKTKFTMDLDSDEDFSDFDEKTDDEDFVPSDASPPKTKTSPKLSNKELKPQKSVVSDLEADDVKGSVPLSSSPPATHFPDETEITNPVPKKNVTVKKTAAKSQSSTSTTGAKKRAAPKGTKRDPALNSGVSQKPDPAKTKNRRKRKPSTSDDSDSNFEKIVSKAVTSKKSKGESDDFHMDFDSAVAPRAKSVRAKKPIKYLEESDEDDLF

As for `CCN(CC)CC[n+]1ccc2c(C)c3[nH]c4ccccc4c3c(C)c2c1` [MYCMI-7, 2-(5,11-Dimethyl-6H-25-pyrido[4,3-b]carbazol-2-yl)-N,N-diethylethanamine bromide], in data set [1], the “growth response or MYC expression, wt versus p53-deficient cells” value was “no difference”. Besides, the figures for the p53 expression entry in the data set with p53 expression (early (3 hrs)) and in the data set with p53 expression (late (24 hrs)) were “no effect” and “only a minor increase”, respectively. Besides, the “stability against oxidative metabolism” value in data set [2] was “stable”. Moreover, the “GSEA of differentially expressed genes: MYC and E2F target genes” value in data set [3] is given as “downregulation”. The “concentration at which TOP2A inhibition starts” value on Recombinant human Top2a is “higher than 10 μM”. Also, the “concentration of complete TOP2A inhibition” value at Recombinant human Top2a was 100 µM. Besides, the “detection in the brain” value in the data set “pharmacokinetics in mice” was “could not be detected”. For the same compound, the “time of treatment within which MYC:MAX interaction was inhibited” value at MYC:MAX interaction was no more than 4 h. Besides, at MYC:MAX interaction (HeLa cells), the “inhibition of MYC:MAX GLuc interaction” value is on record as “inhibited”.
